“Also recorded” adds a separate entry of the source. Residues, ends and D or L forms follow the SMILES beside them.

The subject of test [1] is MPO. The test is described as follows: MPO-mediated nitration of bovine serum albumin (western blot). The test is classed as biochemical. The conditions noted are these: for MPO-mediated BSA nitration: H2O2 100 µM, nitrite 100 µM. As to the method:
MPO-mediated Nitration of Bovine Serum Albumin (BSA). BSA (0.5 mg/mL) was incubated with MPO (20 nM), H2O2 (100 µM), nitrite (100 µM) and increasing concentrations of KYC in phosphate buffer (100 mM, pH 7.4) containing DTPA (100 µM) for 30 min. Reactions were stopped by addition of catalase. Nitrotyrosine formation was assessed by western blot analysis.
MPO-mediated Nitration of Bovine Serum Albumin (BSA): BSA (0.5 mg/mL) was incubated with MPO (20 nM), H2O2 (25 µM), NaNO2 (50 µM) and increasing concentrations of KYC in phosphate buffer (100 mM, pH 7.4) containing DTPA (100 µM) for 30 min. Reactions were halted by addition of catalase (2,000 units/mL). NO2Tyr formation was assessed by western blot analysis with an anti-NO2Tyr rabbit polyclonal antibody (EMD, Gibbstown, NJ).

Test [2] concerns MPO. As to the kind of experiment: MPO-mediated LDL Trp oxidation (Trp intrinsic fluorescence). The conditions noted are these: MPO/H2O2/NO2- system, 30 min, room temperature. It is filed as biochemical. As to the method:
MPO-mediated LDL Trp Oxidation: Reaction mixtures containing LDL (0.15 mg/mL), NaNO2 (100 µM), H2O2 (100 µM), MPO (20 nM) and increasing concentrations of KYC in a phosphate buffer (100 mM, pH 7.4) containing DTPA (100 µM) were incubated at room temperature for 30 min. Reactions were stopped by addition of catalase (2,000 units/mL) and the oxidation of Trp in LDL was determined by measuring changes in the intrinsic fluorescence of Trp (Ex 294nm/Em 345 nm) using a LC-50 fluorometer (Perkin Elmer, Waltham MA).

For test [3], the system named is MPO. As to the kind of experiment: MPO-mediated nitration of LDL (dot blot). The test is classed as biochemical. As to conditions: MPO/H2O2/NaNO2, 37 °C, 4 h. As to the method: MPO-mediated Nitration of LDL: LDL (0.5 mg/mL) was incubated with MPO (50 nM), H2O2 (50 µM), NaNO2 (50 µM) and increasing concentrations of KYC in phosphate buffer (100 mM, pH 7.4) containing DTPA (100 µM) at 37 °C for 4 h. Reactions were stopped by addition of catalase (2,000 units/mL). Formation of NO2Tyr was assessed by dot blot analysis. Briefly, LDL solutions were mixed with 1% SDS and centrifuged (12000 g, 15 min). Aliquots of supernatants were applied to a nitrocellulose membrane with a dot blot apparatus (Biorad model: Bio-Dot). The levels of NO2Tyr were visualized using a rabbit polyclonal anti-NO2Tyr antibody (EMD, Gibbstown, NJ) and the ECL plus kit from Thermo-Peirce (Rockford, IL).

Test [4] relates to BAEC. As to the kind of experiment: MPO-mediated BAEC injury (cell morphology). The test is classed as cell-based, Bovine. As to conditions: 20 min.
In test [5] the test system is SCD mice. The test is described as follows: Vasodilatation of pressurized facialis arteries from treated SCD mice. It is filed as in vivo. As to conditions: IP 0.3 mg/kg/d for 3 weeks; response to ACh; untreated SCD ∼20%. As to the method: Murine Model of Sickle Cell Disease. Mice treated with KYC in vivo. SCD mice were treated with KYC (intraperitoneal injection: IP 0.3 mg/kg/d) or with PBS (IP 100 µL) for 3 weeks. Anesthesia was induced with Ketamine (100mg/kg) + Xylazine (10mg/kg) cocktail (ip) and then sacrificed by exsanguination. Facialis arteries were atraumatically dissected and maintained in cooled MOPS solution (in mM: NaCl 145, KCL 4.7, CaCl2 2, NaH2PO4 1.2, MgSO4, 1.2, pyruvate 2, EDTA 0.02, MOPS 3.0, and glucose 5.0, at pH 7.4). Vessels were then submerged in a MOPS bath, mounted on MOPS-containing glass capillary tubes, internally pressurized (60 mmHg), and warmed to 37°C. Internal vascular diameters were measured with a calibrated video-microscope (Boeckeler). After the vessel was allowed to acclimate to 37°C (approximately 30 min), the diameter was measured and recorded (Dmax). […] A control dose-response curve using acetylcholine (ACh, 10^-7 - 10^-4 M) was performed and vessel diameter recorded. […] Vasodilation to papaverine (2.0X10^-4 M) was determined after all treatments to ensure smooth muscle viability. Vasodilation was calculated as a percent of maximal vessel diameter change.
Vasodilatation. […] Physiological responses to increasing concentrations of acetylcholine (ACh) were determined by videomicroscopy as previously described.

Test [6] deals with SCD mice. The test is described as follows: Immunofluorescence of aortas of SCD mice. It is filed as in vivo. As to conditions: IP 0.3 mg/kg/d, three weeks; vs non-treated SCD mice. As to the method: Immunofluorescence Studies. In a separate study, SCD mice were treated with KYC (IP, 0.3 mg/kg/d). After three weeks treatment, mice were deeply anesthetized and euthanized by exsanguination. Thoracic and abdominal aortas were surgically removed and rinsed free of blood elements using ice cold PBS. Aortas were fixed, imbedded in paraffin, and sectioned.

Test [7] concerns SCD mice. As to the kind of experiment: WBC counts in SCD mice (cytometry). As to conditions: SCD mice treated for three weeks. It is filed as in vivo. As to the method: MPO improves vascular function in SCD mice. To determine whether inhibiting MPO improves vascular function and/or reduces inflammation in vivo, SCD mice were treated with KYC for three weeks. […] Such physiological and structural changes are consistent with immunofluorescent studies showing that chlorotyrosine and MPO levels are reduced in the aortas of KYC-treated SCD mice compared with non-treated SCD mice (Fig. 13). High WBC counts are indicative of on-going inflammation in SCD and predictive of future vaso-occlusive events. Accordingly, WBC levels were quantified in the SCD mice using standard cytometry assays.

With `CC(=O)N[C@@H](CCCCN)C(=O)N[C@@H](Cc1ccc(O)cc1)C(=O)N[C@@H](CS)C(N)=O` [KYC, N-acetyl Lysyltyrosylcysteine amide] (Ac-Lys-Tyr-Cys-NH2), the “MPO-mediated BSA nitration” value in test [1] (30 µM) is recorded as “inhibits”; in test [1] (250 µM), “essentially ablates”. In test [1] (50 µM, H2O2 25 µM, NaNO2 50 µM), the “NO2Tyr formation in BSA” value is on record as “essentially ablated”. For the same compound, in test [2], the “MPO-dependent oxidation of Trp residues in LDL” value is “protected the Trp residues in LDL against MPO-dependent oxidation”. Moreover, the “NO2Tyr in LDL” value in test [3] is recorded as “markedly reduces”. For the same compound, the “protection of BAEC from MPO-induced injury (morphology)” value in test [4] (25 µM, higher MPO (5 µg/ml) or H2O2 (100 µM), data not shown) is “protected BAEC from even higher concentrations of MPO”; in test [4] (50 µM, MPO 2.5 µg/ml, H2O2 50 µM) it was “almost the same morphology as cultures that were not exposed to MPO”. The “vasodilatation, percent of maximal vessel diameter change” value in test [5] is given as about 60%. Besides, the “MPO levels in the aortas” value in test [6] is recorded as “reduced”. The “chlorotyrosine levels in the aortas” value in test [6] was “reduced”. Further, in test [7], the WBC counts entry is “more than half; also recorded: reduced by half”.
